# Test system: T-lymphocytes
# Assay: Lymphocyte toxicity assay (LTA)
# Type: cell-based, human
# Conditions: for Viability %: post-mastectomy
# From the text: The present invention is particularly effective in determining the efficacy of the drug alone by measuring the lymphocyte toxicity assay and then combining the prescribed drug with various anabolic steroidal compounds.
# Exemplifying the present invention is Table 2 below which sets forth a lymphocyte toxicity assay for a post-mastectomy treatment for reducing pain by measuring the efficacy of combining a known drug, Inflectra, with a steroidal compound which is an anti-tumor necrosis alpha inhibitor as the base.
# [1] = single therapeutic, patient blood cells, untreated cell control = 100%
Compound,Viability % [1],Toxicity to the cells (interpretation in words) (patient blood cells exposed to the therapeutics),Toxicity [1]
C[C@]12COC(=O)C[C@@H]1CC[C@@H]1[C@@H]2CC[C@@]2(C)[C@H]1CC[C@]2(C)O [Oxandrolone],117%,–,–
C[C@]12Cc3c[nH]nc3C[C@@H]1CC[C@@H]1[C@@H]2CC[C@@]2(C)[C@H]1CC[C@]2(C)O [Stanozolol],–,"The only medication that was toxic to the cell was Stanozolol. However, the combination of Stanozolol",14%
INFLECTRA: known drug; anti-tumor necrosis alpha inhibitor,160%,–,–
C[C@]12CC[C@H]3[C@@H](CCC4=CC(=O)CC[C@@]43C)[C@@H]1CC[C@@H]2O [Testosterone],150%,–,–
C[C@]12CC[C@H]3[C@@H](CCC4=CC(=O)CC[C@@H]43)[C@@H]1CC[C@@H]2O [Nandrolone],158%,–,–
